We go through nine molecules from PubChem BioAssay AID180 (DTP/NCI, 2004).

“And” between values parts separate entries of the source, which are not always exact repeats. Equal values may be shown once.

This experiment concerns BDF1 mice, Adenocarcinoma 755 s.c., tumor weight T/C. The experiment in a line: NCI In Vivo Anticancer Drug Screen. Data for tumor model Adenocarcinoma 755 (subcutaneous) in B6D2F1 (BDF1) mice. Particulars: endpoint: mean tumor weight, higher = larger tumour. The method in brief: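 Compound activity was tested in mice carrying transplanted tumors. Survival or tumor size was measured, and each value is the treated-group measurement divided by that of the vehicle-treated control group (T/C).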

One may read the T/C as the result in the treated group divided by that in the control group, in per cent. As for `C[C@]12C[C@H](O)[C@H]3[C@@H](CCC4=CC(=O)CC[C@@]43C)[C@@H]1CC[C@@H]2C(=O)CF`, the T/C was 121 % of control (dose: 25.0 mg/kg/injection, schedule: Q01DX011 (sc), vehicle: steriod suspending solution); 79 % of control (dose: 200.0 mg/kg/injection, schedule: Q01DX011 (sc), vehicle: steriod suspending solution); 79 % of control (dose: 400.0 mg/kg/injection, schedule: Q01DX011 (sc), vehicle: steriod suspending solution).
As to `C=CC(O)CN1CC1C` (stereo unspecified) (tested in a mixture with another compound), the T/C by setting is: (dose: 1.9 mg/kg/injection, schedule: Q01DX011 (ip), vehicle: methylcellulose (MC)) 85 % of control; (dose: 3.75 mg/kg/injection, schedule: Q01DX011 (ip), vehicle: methylcellulose (MC)) 100 % of control; (dose: 7.5 mg/kg/injection, schedule: Q01DX011 (ip), vehicle: methylcellulose (MC)) 97 % of control; (dose: 15.0 mg/kg/injection, schedule: Q01DX011 (ip), vehicle: methylcellulose (MC)) 71 % of control.
Consider `CCCSc1ncnc2nc[nH]c12`, for which the T/C reads like this: (dose: 0.12 mg/kg/injection, schedule: Q#A X022 (ip), vehicle: alcohol) 73 % of control; (dose: 0.25 mg/kg/injection, schedule: Q#A X022 (ip), vehicle: alcohol) 46 % of control; (dose: 0.5 mg/kg/injection, schedule: Q01DX011 (ip), vehicle: alcohol) 80 % of control; (dose: 1.0 mg/kg/injection, schedule: Q01DX006 (iv), vehicle: alcohol) 111 % of control; (dose: 1.0 mg/kg/injection, schedule: Q01DX011 (im), vehicle: alcohol) 82 % of control; (dose: 1.0 mg/kg/injection, schedule: Q01DX011 (ip), vehicle: alcohol) 55 % of control. The T/C (dose: 1.0 mg/kg/injection, schedule: Q01DX011 (oral), vehicle: alcohol) was 44 % of control; the T/C (dose: 1.0 mg/kg/injection, schedule: Q01DX011 (sc), vehicle: alcohol) is 98 % of control; the T/C (dose: 1.0 mg/kg/injection, schedule: Q03DX004 (ip), vehicle: alcohol) was 56 % of control; the T/C (dose: 2.5 mg/kg/injection, schedule: Q01DX011 (ip), vehicle: alcohol) is 24 % of control; the T/C (dose: 2.5 mg/kg/injection, schedule: Q#A X022 (ip), vehicle: alcohol) is 7 % of control; the T/C (dose: 3.0 mg/kg/injection, schedule: Q01DX011 (oral), vehicle: alcohol) is 15 % of control. Also, the T/C (dose: 3.0 mg/kg/injection, schedule: Q03DX004 (ip), vehicle: alcohol) is 85 % of control; the T/C (dose: 3.0 mg/kg/injection, schedule: Q07DX002 (ip), vehicle: alcohol) is 53 % of control; the T/C (dose: 5.0 mg/kg/injection, schedule: Q01DX006 (iv), vehicle: alcohol) was 16 % of control; the T/C (dose: 5.0 mg/kg/injection, schedule: Q01DX011 (im), vehicle: alcohol) is 9 % of control; the T/C (dose: 5.0 mg/kg/injection, schedule: Q01DX011 (ip), vehicle: alcohol) is 3 % of control; the T/C (dose: 5.0 mg/kg/injection, schedule: Q01DX011 (sc), vehicle: alcohol) is 5 % of control. Besides, the T/C runs as follows: (dose: 5.0 mg/kg/injection, schedule: Q#A X022 (ip), vehicle: alcohol) 3 % of control; (dose: 6.0 mg/kg/injection, schedule: Q01DX011 (oral), vehicle: alcohol) 4 % of control; (dose: 6.0 mg/kg/injection, schedule: Q03DX004 (ip), vehicle: alcohol) 74 % of control; (dose: 6.0 mg/kg/injection, schedule: Q07DX002 (ip), vehicle: alcohol) 20 % of control; (dose: 10.0 mg/kg/injection, schedule: Q01DX006 (iv), vehicle: alcohol) 10 % of control; (dose: 10.0 mg/kg/injection, schedule: Q01DX011 (ip), vehicle: alcohol) 4 % of control. Besides, the T/C runs as follows: (dose: 10.0 mg/kg/injection, schedule: Q01DX011 (sc), vehicle: alcohol) 4 % of control; (dose: 10.0 mg/kg/injection, schedule: Q#A X022 (ip), vehicle: alcohol) 4 % of control; (dose: 12.0 mg/kg/injection, schedule: Q01DX001 (ip), vehicle: alcohol) 62 % of control; (dose: 12.0 mg/kg/injection, schedule: Q01DX011 (oral), vehicle: alcohol) 4 % of control; (dose: 12.0 mg/kg/injection, schedule: Q03DX004 (ip), vehicle: alcohol) 26 % of control; (dose: 12.0 mg/kg/injection, schedule: Q07DX002 (ip), vehicle: alcohol) 36 % of control. For the same molecule, the T/C reads like this: (dose: 20.0 mg/kg/injection, schedule: Q01DX006 (iv), vehicle: alcohol) 1 % of control; (dose: 20.0 mg/kg/injection, schedule: Q01DX011 (ip), vehicle: alcohol) 2 % of control; (dose: 20.0 mg/kg/injection, schedule: Q01DX011 (sc), vehicle: alcohol) 6 % of control; (dose: 25.0 mg/kg/injection, schedule: Q01DX001 (ip), vehicle: alcohol) 49 % of control; (dose: 25.0 mg/kg/injection, schedule: Q03DX004 (ip), vehicle: alcohol) 5 % of control; (dose: 25.0 mg/kg/injection, schedule: Q07DX002 (ip), vehicle: alcohol) 12 % of control. In addition, the T/C (dose: 30.0 mg/kg/injection, schedule: Q01DX011 (ip), vehicle: alcohol) was 3 % of control; the T/C (dose: 50.0 mg/kg/injection, schedule: Q03DX004 (ip), vehicle: alcohol) was 16 % of control; the T/C (dose: 50.0 mg/kg/injection, schedule: Q07DX002 (ip), vehicle: alcohol) was 16 % of control; the T/C (dose: 100.0 mg/kg/injection, schedule: Q01DX001 (ip), vehicle: alcohol) is 35 % of control and 51 % of control; the T/C (dose: 100.0 mg/kg/injection, schedule: Q03DX004 (ip), vehicle: alcohol) was 3 % of control; the T/C (dose: 100.0 mg/kg/injection, schedule: Q07DX002 (ip), vehicle: alcohol) is 17 % of control. For the same molecule, the T/C runs as follows: (dose: 150.0 mg/kg/injection, schedule: Q01DX001 (ip), vehicle: alcohol) 21 % of control and 34 % of control; (dose: 150.0 mg/kg/injection, schedule: Q03DX004 (ip), vehicle: alcohol) 5 % of control; (dose: 150.0 mg/kg/injection, schedule: Q07DX002 (ip), vehicle: alcohol) 5 % of control; (dose: 200.0 mg/kg/injection, schedule: Q07DX002 (ip), vehicle: alcohol) 5 % of control.
`Cc1nc2nncn2c(=O)[nH]1`: the T/C (dose: 25.0 mg/kg/injection, schedule: Q01DX011 (ip), vehicle: saline) is 67 % of control; the T/C (dose: 75.0 mg/kg/injection, schedule: Q01DX011 (ip), vehicle: saline) is 101 % of control; the T/C (dose: 225.0 mg/kg/injection, schedule: Q01DX011 (ip), vehicle: saline) was 84 % of control.
As to `CCOC(=O)C(C)(C)Br`, the T/C reads like this: (dose: 50.0 mg/kg/injection, schedule: Q01DX011 (ip), vehicle: methylcellulose (MC)) 85 % of control; (dose: 100.0 mg/kg/injection, schedule: Q01DX011 (ip), vehicle: methylcellulose (MC)) 107 % of control; (dose: 200.0 mg/kg/injection, schedule: Q01DX011 (ip), vehicle: methylcellulose (MC)) 47 % of control; (dose: 400.0 mg/kg/injection, schedule: Q01DX011 (ip), vehicle: methylcellulose (MC)) 18 % of control; (dose: 500.0 mg/kg/injection, schedule: Q01DX011 (ip), vehicle: methylcellulose (MC)) 13 % of control.
Regarding `CCn1cnc2ncnc(SCc3ccccc3)c21`, the T/C is 107 % of control (dose: 16.0 mg/kg/injection, schedule: Q01DX011 (ip), vehicle: carboxymethylcellulose (CMC)); 89 % of control (dose: 31.0 mg/kg/injection, schedule: Q01DX011 (ip), vehicle: carboxymethylcellulose (CMC)); 46 % of control (dose: 62.0 mg/kg/injection, schedule: Q01DX011 (ip), vehicle: carboxymethylcellulose (CMC)).
For `Cc1n[nH]c(=O)[nH]c1=O`, the T/C runs as follows: (dose: 400.0 mg/kg/injection, schedule: Q01DX011 (ip), vehicle: other) 59 % of control; (dose: 800.0 mg/kg/injection, schedule: Q01DX011 (ip), vehicle: other) 72 % of control.
With `CSc1ncn(C)c2ncnc1-2`, the T/C by setting is: (dose: 30.0 mg/kg/injection, schedule: Q01DX011 (ip), vehicle: carboxymethylcellulose (CMC)) 58 % of control; (dose: 60.0 mg/kg/injection, schedule: Q01DX011 (ip), vehicle: carboxymethylcellulose (CMC)) 71 % of control.
Take `NC(=O)N(CCCl)N=O`: the T/C by setting is: (dose: 0.23 mg/kg/injection, schedule: Q01DX011 (ip), vehicle: methylcellulose (MC)) 54 % of control and 59 % of control; (dose: 0.9 mg/kg/injection, schedule: Q01DX011 (ip), vehicle: methylcellulose (MC)) 34 % of control and 38 % of control; (dose: 1.8 mg/kg/injection, schedule: Q01DX011 (ip), vehicle: methylcellulose (MC)) 27 % of control.
